Test results published in patent US20160159774A1 (Celgene Avilomics Research, Inc., priority 2014, published 2016).

How the values were obtained:
activated BTK enzyme = target: T1, activated BTK enzyme (Homo sapiens, UniProt Q06187); experiment: Omnia assay for potency assessment against BTK; format: biochemical; conditions: BTK inhibition assay; [BTK]=5 nM, [ATP]=40 μM, [Y5-Sox]=10 μM
T1 construct: purchased Life Technologies PV3363
Source text: Omnia Assay Protocol for Potency Assessment Against BTK
The protocol below describes an assay to measure potency of compounds against the activated BTK enzyme. The mechanics of the assay platform are best described by the vendor (Life Technologies, Carlsbad, Calif.) on their website at the following URLs: www.lifetechnologies.com/us/en/home/life-science/drug-discovery/target-and-lead-identification-and-validation/kinasebiology/kinase-activity-assays/omnia-kinase-assays/omnia-kinase-principle.html and tools.lifetechnologies.com/content/sfs/manuals/omnia_kinase_assay_man.pdf
Briefly, 10× stocks of BTK (PV3363) from Life Technologies, 1.13×ATP (AS00lA) and Sox conjugated peptide substrates, Y5-Sox, (KZN305l) were prepared in 1× kinase reaction buffer consisting of 20 mM Tris, pH 7.5, 5 mM MgCl2, 1 mM EGTA, 5 mM (3-glycerophosphate, 5% glycerol (10× stock, KB002A) and 0.2 mM DTT (DS00lA). 5 μL of each enzyme were pre-incubated in a Corning (#3574) 384-well, white, non-binding surface microtiter plate (Corning, N.Y.) for 30 min. at room temperature with a 0.5 μL volume of 50% DMSO or serially diluted compounds prepared in 50% DMSO. Kinase reactions were started with the addition of […] of the ATP/Tyr-Sox peptide substrate Y5 mix and monitored every 71 seconds for 60 minutes at λex360/λem485 in a Synergy4 plate reader from BioTek (Winooski, Vt.). At the conclusion of each assay, progress curves from each well were examined for linear reaction kinetics and fit statistics (R2, 95% confidence interval, absolute sum of squares). Initial velocity (0 minutes to ˜30 minutes) from each reaction was determined from the slope of a plot of relative fluorescence units vs time (minutes) and then plotted against inhibitor concentration to estimate IC50 from log [Inhibitor] vs Response, Variable Slope model in GraphPad Prism from GraphPad Software (San Diego, Calif.).
Reagent conditions for the assay are:
[BTK]=5 nM, [ATP]=40 μM, [Y5-Sox]=10 μM (ATP KMapp˜36 μM).
The compound numbers correspond to the compound numbers in the examples.

[1] = target: T2, BTK in Ramos human Burkitt lymphoma cells (Homo sapiens, UniProt Q06187); experiment: BTK Ramos cellular assay (BTK occupancy); format: cell-based; conditions: concentration producing 50% occupancy of BTK, 1 hour incubation with compound
T2 construct: Compounds of this invention were assayed in Ramos human Burkitt lymphoma cells; endogenous in cells; host or cells: Ramos human Burkitt lymphoma cells
T2 sequence (Q06187 whole entry): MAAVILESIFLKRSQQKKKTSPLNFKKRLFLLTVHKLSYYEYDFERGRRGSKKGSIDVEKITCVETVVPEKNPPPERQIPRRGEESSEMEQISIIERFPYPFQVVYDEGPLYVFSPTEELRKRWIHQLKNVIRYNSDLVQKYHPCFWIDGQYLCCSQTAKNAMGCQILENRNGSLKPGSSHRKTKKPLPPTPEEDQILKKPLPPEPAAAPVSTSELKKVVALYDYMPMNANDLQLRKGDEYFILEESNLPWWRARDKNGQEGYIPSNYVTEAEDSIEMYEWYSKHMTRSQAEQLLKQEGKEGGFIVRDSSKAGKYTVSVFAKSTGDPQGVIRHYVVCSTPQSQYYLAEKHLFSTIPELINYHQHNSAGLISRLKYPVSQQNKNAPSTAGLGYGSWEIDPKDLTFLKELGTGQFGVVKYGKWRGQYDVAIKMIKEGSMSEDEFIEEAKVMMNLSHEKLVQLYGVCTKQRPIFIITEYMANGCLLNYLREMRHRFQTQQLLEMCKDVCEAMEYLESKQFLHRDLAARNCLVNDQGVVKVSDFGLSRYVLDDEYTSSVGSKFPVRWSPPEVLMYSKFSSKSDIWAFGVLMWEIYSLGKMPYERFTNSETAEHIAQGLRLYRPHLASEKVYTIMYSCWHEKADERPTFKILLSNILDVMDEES
Description: BTK activity in Ramos cells, in the presence of a compound of the invention, can be measured by 3 different methods: 1) inhibition of autophosphorylation of BTK; 2) inhibition of phosphorylation of the immediate BTK surrogate PLCγ2; and 3) BTK occupancy. […] In this instance, BTK occupancy was chosen and is described below.
Compounds of this invention were assayed in Ramos human Burkitt lymphoma cells. Ramos cells were grown in suspension in T175 flasks, spun down, resuspended to a concentration of 2×10^6 cells per mL in serum-free media and incubated for 1 hour. Compound was added to Ramos cells to a final concentration of 500, 166.7, 55.6, 18.5, 6.2, 2.1, and 0.7 nM. Ramos cells were incubated with compound for 1 hour, washed with PBS and lysed in 1004 of BioRad lysis Buffer. Cell lysates were incubated with a biotinylated covalent probe (compound 1-215 disclosed in U.S. published application number 2010/0029610, incorporated by reference in its entirety) at a final concentration of 1 μM in a PBS, 0.05% Tween-20, 1% BSA solution for 1 h at room temperature. Standards and samples were transferred to a streptavidin-coated 96-well ELISA plate and mixed while shaking for 1 h at room temperature. The α-Btk antibody (BD 611116, 1:1000 dilution in PBS+0.05% Tween-20+0.5% BSA) was then added and incubated for 1 h at room temperature. After wash, goat α-mouse-HRP (1:5000 dilution in PBS+0.05% Tween-20+0.5% BSA) was added and incubated for 1 h at room temperature. The ELISA was developed with addition of tetramethyl benzidine (TMB) followed by Stop Solution and read at OD 450 nm. The standard curve (11.7-3000 pg/μL) was generated with human full-length recombinant Btk protein and plotted using a 4 parameter curve fit in Gen5 software. Uninhibited Btk detected from samples was normalized to μg total protein as determined by BCA protein analysis (Pierce Cat. 23225).
The results of this assay show the concentration of compound producing 50% occupancy of BTK. This level of occupancy empirically translates to a level of 50% inhibition of BTK activity (both as measured by autophosphorylation and by phosphorylation of PLCγ2). […] The compound numbers correspond to the compound numbers in the examples.

T1 sequence (Q06187 whole entry): as above

IC50 (activated BTK enzyme) [nM]	EC50 [1] [nM]	Structure (SMILES)
< 10	< 10	C=CC(=O)N1CCC[C@@H](Nc2nc(Nc3ccc4c(c3)CN(C3CCC3)CC4)ncc2F)C1 [Compound I-46, (R)-1-(3-(2-(2-Cyclobutyl-1,2,3,4-tetrahydroisoquinolin-7-ylamino)-5-fluoropyrimidin-4-ylamino)piperidin-1-yl)prop-2-en-1-one]
< 10	< 10	C=CC(=O)N1CCC[C@@H](Nc2nc(Nc3ccc4c(c3)CN(CC3COC3)CC4)ncc2F)C1 [Compound I-36, (R)-1-(3-(5-Fluoro-2-(2-(oxetan-3-ylmethyl)-1,2,3,4-tetrahydroisoquinolin-7-ylamino)pyrimidin-4-ylamino)piperidin-1-yl)prop-2-en-1-one]
< 10	10 to 100	C=CC(=O)N1CCC[C@@H](Nc2nc(Nc3ccc4c(c3)CCN(C3CC3)C4)ncc2F)C1 [Compound I-44, (R)-1-(3-((2-((2-Cyclopropyl-1,2,3,4-tetrahydroisoquinolin-6-yl)amino)-5-fluoropyrimidin-4-yl)amino)piperidin-1-yl)prop-2-en-1-one]
< 10	10 to 100	C=CC(=O)N1CCC[C@@H](Nc2nc(Nc3ccc4c(c3)CCCN(CC3COC3)C4)ncc2F)C1 [Compound I-50, (R)-1-(3-((5-Fluoro-2-((2-(oxetan-3-ylmethyl)-2,3,4,5-tetrahydro-1H-benzo[c]azepin-7-yl)amino)pyrimidin-4-yl)amino)piperidin-1-yl)prop-2-en-1-one]
< 10	10 to 100	C=CC(=O)N1CCC[C@@H](Nc2nc(Nc3ccc4c(c3)C(C)(C)N(C)C4(C)C)ncc2F)C1 [Compound I-41, (R)-1-(3-(5-Fluoro-2-(1,1,2,3,3-pentamethylisoindolin-5-ylamino)pyrimidin-4-ylamino)piperidin-1-yl)prop-2-en-1-one]
< 10	< 10	C=CC(=O)N1CCC[C@@H](Nc2nc(Nc3ccc4c(c3)CN(C3(C)CCOCC3)C4)ncc2F)C1 [Compound I-40, (R)-1-(3-(5-Fluoro-2-(2-(4-methyltetrahydro-2H-pyran-4-yl)isoindolin-5-ylamino)pyrimidin-4-ylamino)piperidin-1-yl)prop-2-en-1-one]
< 10	10 to 100	C=CC(=O)N1CCC[C@@H](Nc2nc(Nc3ccc4c(c3)CCCN(C)C4=O)ncc2F)C1 [Compound I-52, (R)-7-((4-((1-Acryloylpiperidin-3-yl)amino)-5-fluoropyrimidin-2-yl)amino)-2-methyl-2,3,4,5-tetrahydro-1H-benzo[c]azepin-1-one]
< 10	< 10	C=CC(=O)N1CCC[C@@H](Nc2nc(Nc3ccc4c(c3)CCN(CC3COC3)C4)ncc2F)C1 [Compound I-32, (R)-1-(3-(5-Fluoro-2-(2-(oxetan-3-ylmethyl)-1,2,3,4-tetrahydroisoquinolin-6-ylamino)pyrimidin-4-ylamino)piperidin-1-yl)prop-2-en-1-one]
< 10	10 to 100	C=CC(=O)N1CCC[C@@H](Nc2nc(Nc3ccc4c(c3)CN(CCF)C4)ncc2F)C1 [Compound I-39, (R)-1-(3-((5-Fluoro-2-((2-(2-fluoroethyl)isoindolin-5-yl)amino)pyrimidin-4-yl)amino)piperidin-1-yl)prop-2-en-1-one]
101 to 1000		C=CC(=O)N1CC2CC(Nc3nc(Nc4ccc5c(c4)CN(C)C5)ncc3F)C1C2 (stereo not drawn) [Compound I-66, 1-(6-((5-fluoro-2-((2-methylisoindolin-5-yl)amino)pyrimidin-4-yl)amino)-2-azabicyclo[2.2.1]heptan-2-yl)prop-2-en-1-one]

The remaining lines, values behind:

Structure (SMILES)	IC50 (activated BTK enzyme) [nM]	EC50 [1] [nM]
C=CC(=O)N1CCC[C@@H](Nc2nc(Nc3ccc4c(c3)CN(C3CCNCC3)C4)ncc2F)C1 [Compound I-5, (R)-1-(3-((5-fluoro-2-((2-(piperidin-4-yl)isoindolin-5-yl)amino)pyrimidin-4-yl)amino)piperidin-1-yl)prop-2-en-1-one]	< 10	101 to 1000
C=CC(=O)N1CCC[C@@H](Nc2nc(Nc3ccc4c(c3)CN(C3COC3)C4)ncc2F)C1 [Compound I-13, (R)-1-(3-((5-Fluoro-2-((2-(oxetan-3-yl)isoindolin-5-yl)amino)pyrimidin-4-yl)amino)piperidin-1-yl)prop-2-en-1-one]	< 10	10 to 100
C=CC(=O)N1CCC[C@@H](Nc2nc(Nc3ccc4c(c3)CN(CC3COC3)C4)ncc2F)C1 [Compound I-15, (R)-1-(3-((5-Fluoro-2-((2-(oxetan-3-ylmethyl)isoindolin-5-yl)amino)pyrimidin-4-yl)amino)piperidin-1-yl)prop-2-en-1-one]	< 10	10 to 100
C=CC(=O)N1CCC[C@@H](Nc2nc(Nc3ccc4c(c3)CCN(C3COC3)C4)ncc2F)C1 [Compound I-31, (R)-1-(3-(5-Fluoro-2-(2-(oxetan-3-yl)-1,2,3,4-tetrahydroisoquinolin-6-ylamino)-pyrimidin-4-ylamino)piperidin-1-yl)prop-2-en-1-one]	< 10	< 10
C=CC(=O)N1CCC[C@@H](Nc2nc(Nc3ccc4c(c3)CN(CC3CCN(C(C)=O)CC3)C4)ncc2F)C1 [Compound I-10]	< 10	10 to 100
C=CC(=O)N1CC2(CC(Nc3nc(Nc4ccc5c(c4)CN(C)C5)ncc3F)C2)C1 [Compound I-26, 1-(6-((5-Fluoro-2-((2-methylisoindolin-5-yl)amino)pyrimidin-4-yl)amino)-2-azaspiro[3.3]heptan-2-yl)prop-2-en-1-one]	< 10	< 10
C=CC(=O)N1CCC[C@@H](Nc2nc(Nc3ccc4c(c3)CN(C3CCC3)C4)ncc2F)C1 [Compound I-18, (R)-1-(3-((2-((2-Cyclobutylisoindolin-5-yl)amino)-5-fluoropyrimidin-4-yl)amino)piperidin-1-yl)prop-2-en-1-one]	< 10	< 10
C=CC(=O)N1CCC[C@@H](Nc2nc(Nc3ccc4c(c3)CN(CC(C)(C)C)C4)ncc2F)C1 [Compound I-14, (R)-1-(3-((5-Fluoro-2-((2-neopentylisoindolin-5-yl)amino)pyrimidin-4-yl)amino)piperidin-1-yl)prop-2-en-1-one]	< 10	10 to 100
C=CC(=O)N1CCC[C@@H](Nc2nc(Nc3ccc4c(c3)CN(CCO)C4)ncc2F)C1 [Compound I-23, (R)-1-(3-((5-fluoro-2-((2-(2-hydroxyethyl)isoindolin-5-yl)amino)pyrimidin-4-yl)amino)piperidin-1-yl)prop-2-en-1-one]	< 10	< 10
[2H]C([2H])([2H])N1Cc2ccc(Nc3ncc(F)c(N[C@@H]4CCCN(C(=O)C=C)C4)n3)cc2C1 [Compound I-20, (R)-1-(3-((5-Fluoro-2-((2-deuteromethylisoindolin-5-yl)amino)pyrimidin-4-yl)amino)piperidin-1-yl)prop-2-en-1-one]	< 10	< 10
